Data: patent US8124764B2, “Fused heterocyclyc inhibitor compounds” (Gilead Sciences, Inc., priority 2008, dated 2012)

Tests used:
HDAC 1 = HDAC 1 (Homo sapiens, UniProt Q13547); experiment: HDAC 1 inhibition assay with about 3 hours enzyme/compound preincubation (fluorophore/quencher peptide substrate); assay type: biochemical; conditions: 3-hour preincubation of enzyme with compound; read-out: HDAC 1 inhibitory activity (IC50 [μM]) (3-hour preincubation)
Experimental: HDAC inhibitory activity of the compound of Example 1 was measured by two types of assays in which HDAC 1 was used as a target molecule. The first assay was carried out without preincubation after addition of the enzyme. The test compound was suspended in and titrated in dmso. It was then spotted into a 384-well test plate. The enzyme, HDAC 1, was diluted in assay buffer containing 25 mM Tris-HCl (pH 8.0), 137 mM NaCl, 2.7 mM KCl, and 0.01% Tween-20 and added to the pre-spotted compound. The peptide substrate containing a fluorophore/quencher pair was diluted in the same assay buffer and added to the compound/enzyme mix initiating the reaction. The reaction incubated at room temperature for about 45 minutes. A concentrated developer solution was diluted in the assay buffer, and added to the reaction. The reaction was incubated at room temperature for about 15 minutes and relative fluorescence was read on an instrument reader.
The second assay is similar to the first assay described above, except that preincubation is carried out for about 3 hours after the enzyme is introduced. The test compound was suspended in, and titrated in DMSO. It was then spotted into a 384-well test plate. The enzyme, HDAC 1, was diluted in the same assay buffer as used in the previous assay and added to the pre-spotted compound. The enzyme/compound mix was incubated at room temperature for about 3 hours. The peptide substrate containing a fluorophore/quencher pair was diluted in the assay buffer and added to the compound/enzyme mix initiating the reaction. The reaction incubated at room temperature for 45 minutes. A concentrated developer solution was diluted in the assay buffer, and added to the reaction. The reaction was incubated at room temperature for about 15 minutes and relative fluorescence was read on an instrument reader.

CDK2 = CDK2 (Homo sapiens, UniProt P24941); experiment: CDK2 inhibition; assay type: biochemical

HDAC 1, sequence (Q13547 whole entry, species assumed): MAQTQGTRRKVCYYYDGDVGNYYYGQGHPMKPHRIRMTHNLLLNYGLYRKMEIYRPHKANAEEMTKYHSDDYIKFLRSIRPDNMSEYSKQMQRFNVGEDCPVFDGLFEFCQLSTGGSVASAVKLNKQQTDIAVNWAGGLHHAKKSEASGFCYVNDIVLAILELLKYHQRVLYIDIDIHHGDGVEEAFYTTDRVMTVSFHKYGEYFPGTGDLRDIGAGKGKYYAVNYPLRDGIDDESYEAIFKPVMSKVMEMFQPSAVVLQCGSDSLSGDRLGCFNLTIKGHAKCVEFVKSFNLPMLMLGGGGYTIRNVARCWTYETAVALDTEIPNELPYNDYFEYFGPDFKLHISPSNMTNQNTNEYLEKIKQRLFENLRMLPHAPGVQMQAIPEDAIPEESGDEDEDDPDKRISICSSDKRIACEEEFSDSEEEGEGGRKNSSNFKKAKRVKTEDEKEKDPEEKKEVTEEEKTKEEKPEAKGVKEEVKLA

SMILES | IC50 (HDAC 1) [µM] | IC50 (CDK2) [µM]
Cc1nc2ccccn2c1-c1ccnc(Nc2ccc(C(=O)NO)cc2)n1 [Example 1, N-Hydroxy-4-(4-(2-methylimidazo[1,2-a]pyridin-3-yl)-pyrimidin-2-ylamino)-benzamide] | 0.067 | 0.044
Cc1nc2ccccn2c1-c1ccnc(Nc2ccc(C(=O)Nc3ccccc3N)cc2)n1 [Example 2, N-(2-Amino-phenyl)-4-(4-(2-methylimidazo[1,2-a]pyridin-3-yl)-pyrimidin-2-ylamino)-benzamide] | 0.146 | 0.134
Cc1nc2ccccn2c1-c1ccnc(Nc2cccc(C(=O)NO)c2)n1 [Example 3, N-Hydroxy-3-[4-(2-methyl-imidazo[1,2-a]pyridin-3-yl)-pyrimidin-2-ylamino]-benzamide] | 0.011 | 0.18
Cc1nc2ccccn2c1-c1ccnc(Nc2cccc(C(=O)Nc3ccccc3N)c2)n1 [Example 4, N-(2-Amino-phenyl)-3-[4-(2-methyl-imidazo[1,2-a]pyridin-3-yl)-pyrimidin-2-ylamino]-benzamide] | > 50 | –
O=C(NO)c1ccc(Nc2nccc(-c3cnc4ccccn34)n2)cc1 [Example 5, N-Hydroxy-4-(4-imidazo[1,2-a]pyridin-3-yl-pyrimidin-2-ylamino)-benzamide] | 0.02 | 0.0393
Nc1ccccc1NC(=O)c1ccc(Nc2nccc(-c3cnc4ccccn34)n2)cc1 [Example 6, N-(2-Amino-phenyl)-4-(4-imidazo[1,2-a]pyridin-3-yl-pyrimidin-2-ylamino)-benzamide] | 0.197 | 0.084
O=C(NO)c1cccc(Nc2nccc(-c3cnc4ccccn34)n2)c1 [Example 7, N-Hydroxy-3-(4-imidazo[1,2-a]pyridin-3-yl-pyrimidin-2-ylamino)-benzamide] | 0.017 | 0.069
Nc1ccccc1NC(=O)c1cccc(Nc2nccc(-c3cnc4ccccn34)n2)c1 [Example 8, N-(2-Amino-phenyl)-3-(4-imidazo[1,2-a]pyridin-3-yl-pyrimidin-2-ylamino)-benzamide] | > 50 | 0.144
Cc1nc2cc(C(F)(F)F)ccn2c1-c1ccnc(Nc2ccc(C(=O)NO)cc2)n1 [Example 9, N-Hydroxy-4-[4-(2-methyl-7-trifluoromethyl-imidazo[1,2-a]pyridin-3-yl)-pyrimidin-2-ylamino]-benzamide] | 0.0392 | 0.037
Cc1nc2cc(C(F)(F)F)ccn2c1-c1ccnc(Nc2ccc(C(=O)Nc3ccccc3N)cc2)n1 [Example 10, N-(2-Amino-phenyl)-4-[4-(2-methyl-7-trifluoromethyl-imidazo[1,2-a]pyridin-3-yl)-pyrimidin-2-ylamino]-benzamide] | > 10 | 0.084
Cc1nc2ccc(C(F)(F)F)cn2c1-c1ccnc(Nc2ccc(C(=O)NO)cc2)n1 [Example 11, N-Hydroxy-4-[4-(2-methyl-6-trifluoromethyl-imidazo[1,2-a]pyridin-3-yl)-pyrimidin-2-ylamino]-benzamide] | 0.089 | 0.07
Cc1nc2ccc(C(F)(F)F)cn2c1-c1ccnc(Nc2ccc(C(=O)Nc3ccccc3N)cc2)n1 [Example 12, N-(2-Amino-phenyl)-4-[4-(2-methyl-6-trifluoromethyl-imidazo[1,2-a]pyridin-3-yl)-pyrimidin-2-ylamino]-benzamide] | > 10 | 0.32
COc1ccn2c(-c3ccnc(Nc4ccc(C(=O)NO)cc4)n3)c(C)nc2c1 [Example 13, N-Hydroxy-4-[4-(7-methoxy-2-methyl-imidazo[1,2-a]pyridin-3-yl)-pyrimidin-2-ylamino]-benzamide] | 0.04 | 0.04
COc1ccn2c(-c3ccnc(Nc4ccc(C(=O)Nc5ccccc5N)cc4)n3)c(C)nc2c1 [Example 14, N-(2-Amino-phenyl)-4-[4-(7-methoxy-2-methyl-imidazo[1,2-a]pyridin-3-yl)-pyrimidin-2-ylamino]-benzamide] | ~0.09 | 0.06
O=C(NO)c1ccc(Nc2nccc(-c3c(C(F)(F)F)nc4ccccn34)n2)cc1 [Example 15, N-Hydroxy-4-[4-(2-trifluoromethyl-imidazo[1,2-a]pyridin-3-yl)-pyrimidin-2-ylamino]-benzamide] | 0.0818 | 0.18
Nc1ccccc1NC(=O)c1ccc(Nc2nccc(-c3c(C(F)(F)F)nc4ccccn34)n2)cc1 [Example 16, N-(2-Amino-phenyl)-4-[4-(2-trifluoromethyl-imidazo[1,2-a]pyridin-3-yl)-pyrimidin-2-ylamino]-benzamide] | 0.295 | 0.16

SMILES | IC50 (HDAC 1) [µM] | IC50 (CDK2) [µM]
Cc1nc2cccnn2c1-c1ccnc(Nc2ccc(C(=O)NO)cc2)n1 [Example 17, N-Hydroxy-4-[4-(2-methyl-imidazo[1,2-b]pyridazin-3-yl)-pyrimidin-2-ylamino]-benzamide] | 0.273 | 0.034
Cc1nc2cccnn2c1-c1ccnc(Nc2ccc(C(=O)Nc3ccccc3N)cc2)n1 [Example 18, N-(2-Amino-phenyl)-4-[4-(2-methyl-imidazo[1,2-b]pyridazin-3-yl)-pyrimidin-2-ylamino]-benzamide] | 0.0239 | 0.59
Cc1nc2cnccn2c1-c1ccnc(Nc2ccc(C(=O)NO)cc2)n1 [Example 19, N-Hydroxy-4-[4-(2-methyl-imidazo[1,2-a]pyrazin-3-yl)-pyrimidin-2-ylamino]-benzamide] | 0.0937 | 0.07
Cc1nc2cnccn2c1-c1ccnc(Nc2ccc(C(=O)Nc3ccccc3N)cc2)n1 [Example 20, N-(2-Amino-phenyl)-4-[4-(2-methyl-imidazo[1,2-a]pyrazin-3-yl)-pyrimidin-2-ylamino]-benzamide] | 0.165 | 0.9
Cc1nc2ncccn2c1-c1ccnc(Nc2ccc(C(=O)NO)cc2)n1 [Example 21, N-Hydroxy-4-[4-(2-methyl-imidazo[1,2-a]pyrimidin-3-yl)-pyrimidin-2-ylamino]-benzamide] | 0.289 | 1.18
Cc1nc2ncccn2c1-c1ccnc(Nc2ccc(C(=O)Nc3ccccc3N)cc2)n1 [Example 22, N-(2-Amino-phenyl)-4-[4-(2-methyl-imidazo[1,2-a]pyrimidin-3-yl)-pyrimidin-2-ylamino]-benzamide] | 0.071 | 2.87
Cc1nc2cc(N3CCOCC3)ccn2c1-c1ccnc(Nc2ccc(C(=O)Nc3ccccc3N)cc2)n1 [Example 23, N-(2-Amino-phenyl)-4-[4-(2-methyl-7-morpholin-4-yl-imidazo[1,2-a]pyridin-3-yl)-pyrimidin-2-ylamino]-benzamide] | 5.29 | 0.67
Cc1nc2cc(C#N)ccn2c1-c1ccnc(Nc2ccc(C(=O)Nc3ccccc3N)cc2)n1 [Example 24, N-(2-Amino-phenyl)-4-[4-(7-cyano-2-methyl-imidazo[1,2-a]pyridin-3-yl)-pyrimidin-2-ylamino]-benzamide] | 0.18 | 0.5
Cc1nc2cc(C(=O)NCCN3CCOCC3)ccn2c1-c1ccnc(Nc2ccc(C(=O)Nc3ccccc3N)cc2)n1 [Example 25, 3-(2-(4-(2-aminophenylcarbamoyl)phenylamino)pyrimidin-4-yl)-2-methyl-N-(2-morpholinoethyl)imidazo[1,2-a]pyridine-7-carboxamide] | 0.128 | 1.03
COC(=O)c1ccn2c(-c3ccnc(Nc4ccc(C(=O)Nc5ccccc5N)cc4)n3)c(C)nc2c1 [Example 26, Methyl 3-(2-(4-(2-aminophenylcarbamoyl)phenylamino)pyrimidin-4-yl)-2-methylimidazo[1,2-a]pyridine-7-carboxylate] | > 10 | 0.53
Cc1nc2cc(C(=O)N3CCN(C)CC3)ccn2c1-c1ccnc(Nc2ccc(C(=O)Nc3ccccc3N)cc2)n1 [Example 27, N-(2-Amino-phenyl)-4-{4-[2-methyl-7-(4-methyl-piperazine-1-carbonyl)-imidazo[1,2-a]pyridin-3-yl]-pyrimidin-2-ylamino}-benzamide] | 0.374 | 4.64
Cc1nc2cc(C(=O)O)ccn2c1-c1ccnc(Nc2ccc(C(=O)Nc3ccccc3N)cc2)n1 [Example 28, 3-{2-[4-(2-Amino-phenylcarbamoyl)-phenylamino]-pyrimidin-4-yl}-2-methyl-imidazo[1,2-a]pyridine-7-carboxylic acid] | 0.621 | 2.53
Cc1nc2ccccn2c1-c1ccnc(Nc2nnc(C(=O)NO)s2)c1 [Example 75, N-hydroxy-5-(4-(2-methylimidazo[1,2-a]pyridin-3-yl)pyridin-2-ylamino)-1,3,4-thiadiazole-2-carboxamide] | 0.669 | –
Cc1nc2ccccn2c1-c1ccnc(Nc2cnc(C(=O)NO)cn2)c1 [Example 76, N-hydroxy-5-(4-(2-methylimidazo[1,2-a]pyridin-3-yl)pyridin-2-ylamino)pyrazine-2-carboxamide] | 0.526 | –
COc1ccn2c(-c3ccnc(Nc4ccc(C(=O)NO)cn4)c3)c(C)nc2c1 [Example 77, N-hydroxy-6-(4-(7-methoxy-2-methylimidazo[1,2-a]pyridin-3-yl)pyridin-2-ylamino)nicotinamide] | 0.18 | –
